{
  "source": "paper PMC11079024",
  "about": "“Identification of a family of species-selective complex I inhibitors as potential anthelmintics” (Nature Communications, 2024)",
  "key": {"[1]": {"system": "L1 wild-type C. elegans", "test": "whole plant or invertebrate", "conditions": "Caenorhabditis elegans, 15 h, read-out: C. elegans KCN survival assay LC50"}, "[2]": {"system": "L1 wild-type C. elegans", "test": "15-hour motility assay with drug alone (no KCN)", "format": "cell-based, Caenorhabditis elegans", "conditions": "without KCN, 15-hour; for Value relative to DMSO control, drug alone (without KCN), Mean: mean of replicates; for Value relative to DMSO control, drug alone (without KCN): single replicates"}, "[3]": {"system": "L1 wild-type C. elegans", "conditions": "drug + KCN, 15-hour; for KCN survival assay value relative to DMSO control, Mean: mean of replicates; for KCN survival assay value relative to DMSO control: single replicates"}},
  "note": "Values joined by “and” are separate entries in the source; they are usually repeats but may differ in a detail not shown here. Equal entries are not always repeated. Where two headings read alike, the source gives them in different places.",
  "data": [
    {"smiles": "Cc1cc(C(C#N)c2ccc(Cl)cc2)c(Cl)cc1NC(=O)c1cc(I)cc(I)c1O", "note": "(centres unmarked) [Closantel]", "values": [
      {"measurement": "LC50", "setting": "[1]", "value": 332, "unit": "nM"},
      {"measurement": "Value relative to DMSO control, drug alone (without KCN), Mean", "setting": "[2]; 0.025 µM", "value": 1.096},
      {"measurement": "Value relative to DMSO control, drug alone (without KCN)", "setting": "[2]; 0.025 µM", "value": "1.270 and 1.000 and 1.019"},
      {"measurement": "Value relative to DMSO control, drug alone (without KCN), Mean", "setting": "[2]; 0.05 µM", "value": 0.995},
      {"measurement": "Value relative to DMSO control, drug alone (without KCN)", "setting": "[2]; 0.05 µM", "value": "1.190 and 0.812 and 0.983"},
      {"measurement": "Value relative to DMSO control, drug alone (without KCN), Mean", "setting": "[2]; 0.1 µM", "value": 0.999},
      {"measurement": "Value relative to DMSO control, drug alone (without KCN)", "setting": "[2]; 0.1 µM", "value": "1.131 and 0.827 and 1.040"},
      {"measurement": "Value relative to DMSO control, drug alone (without KCN), Mean", "setting": "[2]; 0.2 µM", "value": 1.003},
      {"measurement": "Value relative to DMSO control, drug alone (without KCN)", "setting": "[2]; 0.2 µM", "value": "1.030 and 1.024 and 0.957"},
      {"measurement": "Value relative to DMSO control, drug alone (without KCN), Mean", "setting": "[2]; 0.4 µM", "value": 0.958},
      {"measurement": "Value relative to DMSO control, drug alone (without KCN)", "setting": "[2]; 0.4 µM", "value": "1.006 and 0.910 and 0.957"},
      {"measurement": "Value relative to DMSO control, drug alone (without KCN), Mean", "setting": "[2]; 0.8 µM", "value": 1.081},
      {"measurement": "Value relative to DMSO control, drug alone (without KCN)", "setting": "[2]; 0.8 µM", "value": "1.194 and 1.047 and 1.003"},
      {"measurement": "Value relative to DMSO control, drug alone (without KCN), Mean", "setting": "[2]; 3.1 µM", "value": 0.969},
      {"measurement": "Value relative to DMSO control, drug alone (without KCN)", "setting": "[2]; 3.1 µM", "value": "1.240 and 0.805 and 0.863"},
      {"measurement": "Value relative to DMSO control, drug alone (without KCN), Mean", "setting": "[2]; 6.3 µM", "value": 1.048},
      {"measurement": "Value relative to DMSO control, drug alone (without KCN)", "setting": "[2]; 6.3 µM", "value": "1.218 and 0.919 and 1.007"},
      {"measurement": "Value relative to DMSO control, drug alone (without KCN), Mean", "setting": "[2]; 12.5 µM", "value": 1.059},
      {"measurement": "Value relative to DMSO control, drug alone (without KCN)", "setting": "[2]; 12.5 µM", "value": "1.241 and 0.872 and 1.065"},
      {"measurement": "Value relative to DMSO control, drug alone (without KCN), Mean", "setting": "[2]; 25 µM", "value": 0.703},
      {"measurement": "Value relative to DMSO control, drug alone (without KCN)", "setting": "[2]; 25 µM", "value": "0.678 and 0.775 and 0.655"},
      {"measurement": "KCN survival assay value relative to DMSO control, Mean", "setting": "[3]; 0.025 µM", "value": 0.976},
      {"measurement": "KCN survival assay value relative to DMSO control", "setting": "[3]; 0.025 µM", "value": "0.959 and 0.928 and 1.042"},
      {"measurement": "KCN survival assay value relative to DMSO control, Mean", "setting": "[3]; 0.05 µM", "value": 0.987},
      {"measurement": "KCN survival assay value relative to DMSO control", "setting": "[3]; 0.05 µM", "value": "1.068 and 0.937 and 0.955"},
      {"measurement": "KCN survival assay value relative to DMSO control, Mean", "setting": "[3]; 0.1 µM", "value": 0.937},
      {"measurement": "KCN survival assay value relative to DMSO control", "setting": "[3]; 0.1 µM", "value": "0.967 and 0.903 and 0.941"},
      {"measurement": "KCN survival assay value relative to DMSO control, Mean", "setting": "[3]; 0.2 µM", "value": 0.886},
      {"measurement": "KCN survival assay value relative to DMSO control", "setting": "[3]; 0.2 µM", "value": "1.054 and 0.849 and 0.755"},
      {"measurement": "KCN survival assay value relative to DMSO control, Mean", "setting": "[3]; 0.4 µM", "value": 0.363},
      {"measurement": "KCN survival assay value relative to DMSO control", "setting": "[3]; 0.4 µM", "value": "0.480 and 0.444 and 0.164"},
      {"measurement": "KCN survival assay value relative to DMSO control, Mean", "setting": "[3]; 0.8 µM", "value": 0.018},
      {"measurement": "KCN survival assay value relative to DMSO control, Mean", "setting": "[3]; 3.1 µM", "value": 0.000},
      {"measurement": "KCN survival assay value relative to DMSO control, Mean", "setting": "[3]; 6.3 µM", "value": 0.000},
      {"measurement": "KCN survival assay value relative to DMSO control", "setting": "[3]; 6.3 µM", "value": 0.000},
      {"measurement": "KCN survival assay value relative to DMSO control, Mean", "setting": "[3]; 12.5 µM", "value": 0.0065},
      {"measurement": "KCN survival assay value relative to DMSO control, Mean", "setting": "[3]; 25 µM", "value": 0.0037}
    ]},
    {"smiles": "O=C(Nc1ccc(Oc2ccc(Cl)cc2)c(Cl)c1)c1cc(I)cc(I)c1O", "note": "[Rafoxanide]", "values": [
      {"measurement": "LC50", "setting": "[1]", "value": 141, "unit": "nM"},
      {"measurement": "Value relative to DMSO control, drug alone (without KCN), Mean", "setting": "[2]; 0.025 µM", "value": 1.251},
      {"measurement": "Value relative to DMSO control, drug alone (without KCN)", "setting": "[2]; 0.025 µM", "value": "1.299 and 1.275 and 1.179"},
      {"measurement": "Value relative to DMSO control, drug alone (without KCN), Mean", "setting": "[2]; 0.05 µM", "value": 1.063},
      {"measurement": "Value relative to DMSO control, drug alone (without KCN)", "setting": "[2]; 0.05 µM", "value": "1.000 and 1.187"},
      {"measurement": "Value relative to DMSO control, drug alone (without KCN), Mean", "setting": "[2]; 0.1 µM", "value": 0.952},
      {"measurement": "Value relative to DMSO control, drug alone (without KCN)", "setting": "[2]; 0.1 µM", "value": "0.779 and 1.140 and 0.937"},
      {"measurement": "Value relative to DMSO control, drug alone (without KCN), Mean", "setting": "[2]; 0.2 µM", "value": 0.871},
      {"measurement": "Value relative to DMSO control, drug alone (without KCN)", "setting": "[2]; 0.2 µM", "value": "0.876 and 1.068 and 0.668"},
      {"measurement": "Value relative to DMSO control, drug alone (without KCN), Mean", "setting": "[2]; 0.4 µM", "value": 0.805},
      {"measurement": "Value relative to DMSO control, drug alone (without KCN)", "setting": "[2]; 0.4 µM", "value": "0.814 and 0.980 and 0.622"},
      {"measurement": "Value relative to DMSO control, drug alone (without KCN), Mean", "setting": "[2]; 0.8 µM", "value": 0.942},
      {"measurement": "Value relative to DMSO control, drug alone (without KCN)", "setting": "[2]; 0.8 µM", "value": "0.867 and 0.978 and 0.981"},
      {"measurement": "Value relative to DMSO control, drug alone (without KCN), Mean", "setting": "[2]; 3.1 µM", "value": 0.954},
      {"measurement": "Value relative to DMSO control, drug alone (without KCN)", "setting": "[2]; 3.1 µM", "value": "1.089 and 0.794 and 0.978"},
      {"measurement": "Value relative to DMSO control, drug alone (without KCN), Mean", "setting": "[2]; 6.3 µM", "value": 1.113},
      {"measurement": "Value relative to DMSO control, drug alone (without KCN)", "setting": "[2]; 6.3 µM", "value": "1.082 and 1.203 and 1.055"},
      {"measurement": "Value relative to DMSO control, drug alone (without KCN), Mean", "setting": "[2]; 12.5 µM", "value": 1.298},
      {"measurement": "Value relative to DMSO control, drug alone (without KCN)", "setting": "[2]; 12.5 µM", "value": "1.422 and 1.293 and 1.177"},
      {"measurement": "Value relative to DMSO control, drug alone (without KCN), Mean", "setting": "[2]; 25 µM", "value": 1.108},
      {"measurement": "Value relative to DMSO control, drug alone (without KCN)", "setting": "[2]; 25 µM", "value": "1.103 and 1.144 and 1.075"},
      {"measurement": "KCN survival assay value relative to DMSO control, Mean", "setting": "[3]; 0.025 µM", "value": 0.992},
      {"measurement": "KCN survival assay value relative to DMSO control", "setting": "[3]; 0.025 µM", "value": "1.081 and 1.011 and 0.883"},
      {"measurement": "KCN survival assay value relative to DMSO control, Mean", "setting": "[3]; 0.05 µM", "value": 0.890},
      {"measurement": "KCN survival assay value relative to DMSO control", "setting": "[3]; 0.05 µM", "value": "0.979 and 0.794 and 0.899"},
      {"measurement": "KCN survival assay value relative to DMSO control, Mean", "setting": "[3]; 0.1 µM", "value": 0.788},
      {"measurement": "KCN survival assay value relative to DMSO control", "setting": "[3]; 0.1 µM", "value": "1.030 and 0.770 and 0.563"},
      {"measurement": "KCN survival assay value relative to DMSO control, Mean", "setting": "[3]; 0.2 µM", "value": 0.261},
      {"measurement": "KCN survival assay value relative to DMSO control, Mean", "setting": "[3]; 0.4 µM", "value": 0.0026},
      {"measurement": "KCN survival assay value relative to DMSO control, Mean", "setting": "[3]; 0.8 µM", "value": 0.0007},
      {"measurement": "KCN survival assay value relative to DMSO control, Mean", "setting": "[3]; 3.1 µM", "value": 0.000},
      {"measurement": "KCN survival assay value relative to DMSO control", "setting": "[3]; 3.1 µM", "value": 0.000},
      {"measurement": "KCN survival assay value relative to DMSO control, Mean", "setting": "[3]; 6.3 µM", "value": 0.0019},
      {"measurement": "KCN survival assay value relative to DMSO control, Mean", "setting": "[3]; 12.5 µM", "value": 0.000},
      {"measurement": "KCN survival assay value relative to DMSO control", "setting": "[3]; 12.5 µM", "value": 0.000},
      {"measurement": "KCN survival assay value relative to DMSO control, Mean", "setting": "[3]; 25 µM", "value": 0.000},
      {"measurement": "KCN survival assay value relative to DMSO control", "setting": "[3]; 25 µM", "value": 0.000}
    ]}
  ]
}
